Experimental data: patent US6933288B2, “Pyranosyl cytosines: pharmaceutical formulations and methods” (ISIS Pharmaceuticals, Inc., priority 2002, dated 2005)

Test system: C. Albicans
Assay: Activity against fungi (C. albicans)
Assay type: cell-based
Conditions: Table 10
Excerpt: Table 10 presents results of activity assays for selected compounds against fungi, as exemplified by activity against c. albicans according to assays known in the art.

Row | Structure (SMILES) | Activity against C. Albicans
1 | CNCC(=O)NC(CCN)C(=O)NC1C(C(=O)N2CCNCC2)OC(n2ccc(N)nc2=O)C(O)C1O (stereo not drawn) [compound 5] | 1 to 3 µM
2 | CNCC(=O)NC(CCN)C(=O)CC1C(C(=O)N2CCNCC2)OC(n2ccc(NCCCN3CCN(C)CC3)nc2=O)C(O)C1O (stereo not drawn) [compound 2] | 3 to 6 µM
3 | CNCCNC(CCN)C(=O)CC1C(C(=O)N2CCNCC2)OC(n2ccc(N)nc2=O)C(O)C1O (stereo not drawn) [compound 1] | 1 to 3 µM
